Measurements published in patent US10173971B2, “Picolinamides with fungicidal activity” (DOW AGROSCIENCES LLC, priority 2014, dated 2019).
Like-named read-outs stand apart in the source and are kept apart here.

How the values were obtained:
Puccinia triticina = assay: Fungicidal activity: wheat brown rust (PUCCRT), wheat seedlings, booth sprayer to run-off or track spray; type: in vivo; conditions: for pest or weed control at 100 ppm: High-Volume Cereal Activity at 100 ppm; for pest or weed control at 121.5 g/ha: Low-Volume Cereal Activity at 121.5 g/H
Experimental: All fungicides were evaluated using the aforementioned method for their activity vs. all target diseases. Wheat leaf blotch and brown rust activity were also evaluated using track spray applications, in which case the fungicides were formulated as EC formulations, containing 0.1% Trycol 5941 in the spray solutions. Wheat plants (variety Yuma) were grown from seed in a greenhouse in 50% mineral soil/50% soil-less Metro mix until the first leaf was fully emerged, with 7-10 seedlings per pot. These plants were inoculated with an aqueous spore suspension of Puccinia triticina either prior to or after fungicide treatments. […] The plants were then transferred to a greenhouse set at 24° C. for disease to develop. Fungicide formulation, application and disease assessment followed the procedures as described in the Example A.

Zymoseptoria tritici = assay: Fungicidal activity: leaf blotch of wheat (SEPTTR), wheat seedlings, booth sprayer to run-off or track spray; type: in vivo; conditions: for pest or weed control at 100 ppm: High-Volume Cereal Activity at 100 ppm; for pest or weed control at 121.5 g/ha: Low-Volume Cereal Activity at 121.5 g/H
Experimental: All fungicides were evaluated using the aforementioned method for their activity vs. all target diseases. Wheat leaf blotch and brown rust activity were also evaluated using track spray applications, in which case the fungicides were formulated as EC formulations, containing 0.1% Trycol 5941 in the spray solutions. Wheat plants (variety Yuma) were grown from seed in a greenhouse in 50% mineral soil/50% soil-less Metro mix until the first leaf was fully emerged, with 7-10 seedlings per pot. These plants were inoculated with an aqueous spore suspension of Zymoseptoria tritici either prior to or after fungicide treatments. After inoculation the plants were kept in 100% relative humidity (one day in a dark dew chamber followed by two to three days in a lighted dew chamber at 20° C.) to permit spores to germinate and infect the leaf. The plants were then transferred to a greenhouse set at 20° C. for disease to develop. When disease symptoms were fully expressed on the 1st leaves of untreated plants, infection levels were assessed on a scale of 0 to 100 percent disease severity. Percent disease control was calculated using the ratio of disease severity on treated plants relative to untreated plants.

[1] = 24 h, 1 Day Protectant, read-out: PUCCRT 1DP
[2] = 3DC (Day Curative), read-out: PUCCRT 3DC
[3] = 24 h, 1 Day Protectant, read-out: SEPTTR 1DP
[4] = 3DC (Day Curative), read-out: SEPTTR 3DC
[5] = 72 h, 3 Day Curative, read-out: PUCCRT 3DC
[6] = 72 h, 3 Day Curative, read-out: SEPTTR 3DC

Row | SMILES | pest or weed control at 100 ppm (Puccinia triticina; [1]) [%] | pest or weed control at 100 ppm (Puccinia triticina; [2]) [%] | pest or weed control at 100 ppm (Zymoseptoria tritici; [3]) [%] | pest or weed control at 100 ppm (Zymoseptoria tritici; [4]) [%] | pest or weed control at 121.5 g/ha (Puccinia triticina; [1]) [%] | pest or weed control at 121.5 g/ha (Puccinia triticina; [5]) [%] | pest or weed control at 121.5 g/ha (Zymoseptoria tritici; [3]) [%] | pest or weed control at 121.5 g/ha (Zymoseptoria tritici; [6]) [%]
1 | CCCOC[C@@H](Cc1ccccc1)[C@H](C)OC(=O)[C@@H](C)NC(=O)c1nccc(OC)c1OCOC(C)=O [compound 166] | 80 to 100 | 80 to 100 | 0 to 80 | 0 to 80 | – | – | – | –
2 | CCCOC[C@@H](Cc1ccccc1)[C@H](C)OC(=O)[C@H](CC)NC(=O)c1nccc(OC)c1OCOC(C)=O [compound 167] | 80 to 100 | 80 to 100 | 80 to 100 | 80 to 100 | 80 to 100 | 80 to 100 | 80 to 100 | 0 to 80
3 | CCCO[C@@H](CC)[C@@H](Cc1ccccc1)[C@H](C)OC(=O)[C@H](C)NC(=O)c1nccc(OC)c1OCOC(C)=O [compound 168] | 80 to 100 | 80 to 100 | 80 to 100 | 80 to 100 | 80 to 100 | 80 to 100 | 80 to 100 | 0 to 80
4 | CCCO[C@@H](CC)[C@@H](Cc1ccccc1)[C@H](C)OC(=O)C(C)(C)NC(=O)c1nccc(OC)c1OCOC(C)=O [compound 170] | 0 to 80 | – | 0 to 80 | 0 to 80 | – | – | – | –
5 | CCCOC[C@@H](Cc1ccccc1)[C@H](C)OC(=O)C(C)(C)NC(=O)c1nccc(OC)c1OCOC(C)=O [compound 171] | – | 0 to 80 | 0 to 80 | 0 to 80 | – | – | – | –
6 | CC[C@H](CCCc1ccccc1)[C@@H](CC(C)C)[C@H](C)OC(=O)C(C)NC(=O)c1nccc(OC)c1OC(C)=O (stereo partly drawn) [compound 172] | – | – | – | – | 80 to 100 | 0 to 80 | 0 to 80 | 0 to 80
7 | CC[C@H](CC1CC1)[C@@H](Cc1ccccc1)[C@H](C)OC(=O)[C@H](C)NC(=O)c1nccc(OC)c1OCOC(C)=O [compound 173] | – | – | – | – | 80 to 100 | 0 to 80 | 80 to 100 | 80 to 100
8 | CC[C@H](Cc1ccccc1)[C@@H](Cc1ccc(F)cc1)[C@H](C)OC(=O)[C@H](C)NC(=O)c1nccc(OC)c1OCOC(C)=O [compound 174] | – | – | – | – | 80 to 100 | 0 to 80 | 80 to 100 | 0 to 80
9 | CCCOC[C@@H](Cc1ccccc1)[C@H](C)OC(=O)CNC(=O)c1nccc(OC)c1OCOC(C)=O [compound 175] | – | – | – | – | 80 to 100 | 80 to 100 | – | 0 to 80
10 | CCOC[C@H](Oc1ccc(C)cc1)[C@@H](Cc1ccc(F)cc1)[C@H](C)OC(=O)[C@H](C)NC(=O)c1nccc(OC)c1OCOC(C)=O [compound 177] | – | – | – | – | 80 to 100 | 0 to 80 | 80 to 100 | 0 to 80
11 | C=C[C@H](Cc1ccc(C(F)(F)F)cc1)[C@@H](Cc1ccc(F)cc1)[C@H](C)OC(=O)[C@H](COC)NC(=O)c1nccc(OC)c1OC(C)=O [compound 178] | – | – | – | – | 0 to 80 | 0 to 80 | 0 to 80 | 0 to 80
12 | C=C[C@H](Cc1ccc(C(F)(F)F)cc1)[C@@H](Cc1ccc(F)cc1)[C@H](C)OC(=O)[C@H](C)NC(=O)c1nccc(OC)c1OC(C)=O [compound 179] | – | – | – | – | 80 to 100 | – | 0 to 80 | 80 to 100
13 | C=C[C@H](Cc1ccc(C(F)(F)F)cc1)[C@@H](Cc1ccc(F)cc1)[C@H](C)OC(=O)CNC(=O)c1nccc(OC)c1OC(C)=O [compound 180] | – | – | – | – | 0 to 80 | – | 0 to 80 | –
14 | CC[C@H](Cc1ccc(C(F)(F)F)cc1)[C@@H](Cc1ccc(F)cc1)[C@H](C)OC(=O)[C@H](COC)NC(=O)c1nccc(OC)c1OC(C)=O [compound 181] | – | – | – | – | 80 to 100 | 0 to 80 | 0 to 80 | 0 to 80
15 | CCC[C@@H](Cc1ccccc1)[C@H](C)OC(=O)[C@H](C)NC(=O)c1nccc(OC)c1OCOC(C)=O [compound 184] | – | – | – | – | 80 to 100 | 80 to 100 | 80 to 100 | 80 to 100
16 | COC(=O)[C@@H](Cc1ccccc1)[C@H](C)OC(=O)[C@H](C)NC(=O)c1nccc(OC)c1OCOC(C)=O [compound 185] | – | – | – | – | 0 to 80 | 0 to 80 | 0 to 80 | –
17 | CC[C@H](Cc1ccccc1)[C@@H](Cc1ccc(OC(F)(F)F)cc1)[C@H](C)OC(=O)[C@H](C)NC(=O)c1nccc(OC)c1OCOC(C)=O [compound 187] | – | – | – | – | 0 to 80 | 0 to 80 | 0 to 80 | 0 to 80
18 | CCCC[C@@H]([C@H](C)OC(=O)[C@H](C)NC(=O)c1nccc(OC)c1OCOC(C)=O)[C@H](CC)Oc1ccccc1 [compound 188] | – | – | – | – | 80 to 100 | 80 to 100 | 80 to 100 | 80 to 100
19 | CCCC[C@@H]([C@H](C)OC(=O)[C@H](C)NC(=O)c1nccc(OC)c1OCOC(C)=O)[C@@H](CC)Oc1ccccc1 [compound 189] | – | – | – | – | 80 to 100 | 80 to 100 | 80 to 100 | 0 to 80
20 | CCCC[C@@H]([C@H](C)OC(=O)[C@H](C)NC(=O)c1nccc(OC)c1OC(=O)O)[C@@H](CC)Oc1ccccc1 [compound 190] | – | – | – | – | 80 to 100 | 80 to 100 | 80 to 100 | 80 to 100
21 | CC[C@H](Oc1ccccc1)[C@@H](Cc1ccccc1)[C@H](C)OC(=O)[C@H](C)NC(=O)c1nccc(OC)c1OCOC(C)=O [compound 191] | – | – | – | – | 80 to 100 | 80 to 100 | 80 to 100 | 80 to 100
22 | CC[C@@H](Oc1ccccc1)[C@@H](Cc1ccccc1)[C@H](C)OC(=O)[C@H](C)NC(=O)c1nccc(OC)c1OCOC(C)=O [compound 192] | – | – | – | – | 80 to 100 | 80 to 100 | 80 to 100 | 80 to 100
23 | CC[C@H](Oc1ccccc1)[C@@H](Cc1ccccc1)[C@H](C)OC(=O)[C@H](C)NC(=O)c1nccc(OC)c1OC(C)=O [compound 193] | – | – | – | – | 80 to 100 | 80 to 100 | 80 to 100 | 0 to 80
24 | CC[C@@H](Oc1ccccc1)[C@@H](Cc1ccccc1)[C@H](C)OC(=O)[C@H](C)NC(=O)c1nccc(OC)c1OC(C)=O [compound 194] | – | – | – | – | 80 to 100 | 0 to 80 | 80 to 100 | 80 to 100
25 | COc1ccnc(C(=O)N[C@@H](C)C(=O)O[C@@H](C)[C@H](Cc2ccccc2)c2ccccc2)c1OCOC(C)=O [compound 195] | – | – | – | – | 80 to 100 | 80 to 100 | 80 to 100 | 80 to 100
26 | COc1ccnc(C(=O)N[C@@H](C)C(=O)O[C@@H](C)[C@H](Cc2ccccc2)c2ccccc2)c1OC(C)=O [compound 196] | – | – | – | – | 80 to 100 | 0 to 80 | 80 to 100 | 80 to 100
27 | CCCC[C@H](c1ccccc1)[C@H](C)OC(=O)[C@H](C)NC(=O)c1nccc(OC)c1OC(C)=O [compound 197] | – | – | – | – | 80 to 100 | 80 to 100 | 80 to 100 | 80 to 100
28 | CCCC[C@H](c1ccccc1)[C@H](C)OC(=O)[C@H](C)NC(=O)c1nccc(OC)c1OC(=O)C(C)C [compound 198] | – | – | – | – | 0 to 80 | 0 to 80 | 80 to 100 | 80 to 100
29 | CCCC[C@H](c1ccccc1)[C@H](C)OC(=O)[C@H](C)NC(=O)c1nccc(OC)c1OCOC(C)=O [compound 199] | – | – | – | – | 80 to 100 | 80 to 100 | 80 to 100 | 80 to 100
